Assay results: patent US10166216B2 (Rigel Pharmaceuticals, Inc., priority 2006, dated 2019)

Target: Axl (Homo sapiens (Human), UniProt P30530)
Assay: Phospho-Akt in-cell Western assay (Axl-antibody cross-linking stimulation)
Assay type: cell-based
Settings: inhibition of Axl activity
Method in brief: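 HeLa cells on poly-L-lysine, starved 24 hrs with Axl/Fc, pre-treated with compound 1 hr at 37° C., then stimulated 5 min with Axl primary/secondary antibody cluster. Fixed cells probed for phospho-Akt by chemiluminescent in-cell Western; signal normalized to crystal violet cell number.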

[1] = phospho-Akt in-cell Western assay
[2] = Hela cells, phospho-Akt readout, Table 5, formula (Ia3)
[3] = Hela cells, phospho-Akt readout, Table 7, formula (Ia4)

Axl, sequence (P30530 26-894): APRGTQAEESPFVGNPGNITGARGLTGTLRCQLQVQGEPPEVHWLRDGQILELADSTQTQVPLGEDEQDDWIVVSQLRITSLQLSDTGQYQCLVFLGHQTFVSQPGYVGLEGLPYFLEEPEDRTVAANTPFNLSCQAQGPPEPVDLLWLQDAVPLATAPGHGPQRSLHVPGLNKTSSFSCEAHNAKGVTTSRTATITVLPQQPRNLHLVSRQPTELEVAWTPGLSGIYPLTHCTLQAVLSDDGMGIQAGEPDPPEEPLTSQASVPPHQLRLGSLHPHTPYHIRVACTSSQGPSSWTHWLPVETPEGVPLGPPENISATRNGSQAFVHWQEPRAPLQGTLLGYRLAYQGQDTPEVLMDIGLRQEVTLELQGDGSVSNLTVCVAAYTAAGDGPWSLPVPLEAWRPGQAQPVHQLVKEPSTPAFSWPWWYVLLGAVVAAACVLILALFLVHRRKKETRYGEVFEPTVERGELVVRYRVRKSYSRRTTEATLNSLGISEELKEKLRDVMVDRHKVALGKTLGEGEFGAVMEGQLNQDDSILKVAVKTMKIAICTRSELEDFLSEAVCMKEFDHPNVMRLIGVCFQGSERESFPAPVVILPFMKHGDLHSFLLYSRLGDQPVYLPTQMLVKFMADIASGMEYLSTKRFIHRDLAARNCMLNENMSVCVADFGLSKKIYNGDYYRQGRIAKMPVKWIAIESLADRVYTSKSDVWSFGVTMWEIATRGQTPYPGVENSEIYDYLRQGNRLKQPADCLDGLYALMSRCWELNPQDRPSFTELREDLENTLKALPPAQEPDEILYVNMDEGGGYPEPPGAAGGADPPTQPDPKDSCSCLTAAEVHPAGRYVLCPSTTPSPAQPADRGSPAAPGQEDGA

Compound | IC50 [1] | IC50 [2] | other results
Cc1csc2c(-n3nc(Nc4ccc(N5CCN([C@H]6C[C@@H]7CC[C@H]6C7)CC5)cc4)nc3N)ncnc12 [Compound 188, 1-(7-methylthieno[3,2-d]pyrimidin-4-yl)-N^3-(4-(4-((1S,2S,4R)-bicyclo[2.2.1]heptan-2-yl)-piperazin-1-yl)phenyl)-1H-1,2,4-triazole-3,5-diamine] | < 1000 nM | – | –
Nc1nc(Nc2ccc(N3CCN([C@H]4C[C@@H]5CC[C@H]4C5)CC3)cc2)nn1-c1ncnc2ccsc12 [Compound 189, 1-(thieno[3,2-d]pyrimidin-4-yl)-N^3-(4-(4-((1S,2S,4R)-bicyclo[2.2.1]heptan-2-yl)-piperazin-1-yl)phenyl)-1H-1,2,4-triazole-3,5-diamine] | < 1000 nM | – | –
Nc1nc(Nc2ccc(N3CCN([C@H]4C[C@@H]5CC[C@H]4C5)CC3)cc2)nn1-c1ncnc2sccc12 [Compound 190, 1-(thieno[2,3-d]pyrimidin-4-yl)-N^3-(4-(4-((1S,2S,4R)-bicyclo[2.2.1]heptan-2-yl)-piperazin-1-yl)phenyl)-1H-1,2,4-triazole-3,5-diamine] | < 1000 nM | – | –
Cc1csc2ncnc(-n3nc(Nc4ccc(N5CCN([C@H]6C[C@@H]7CC[C@H]6C7)CC5)cc4)nc3N)c12 [Compound 191, 1-(5-methylthieno[2,3-d]pyrimidin-4-yl)-N^3-(4-(4-((1S,2S,4R)-bicyclo[2.2.1]heptan-2-yl)-piperazin-1-yl)phenyl)-1H-1,2,4-triazole-3,5-diamine] | 1000 to 10000 nM | – | –
Nc1nc(Nc2ccc(N3CCN(C4CCCC4)CC3)c(F)c2)nn1-c1nc2ccccc2c2ccccc12 [Compound 192, 1-(phenanthridin-6-yl)-N^3-(3-fluoro-4-(4-cyclopentylpiperazin-1-yl)phenyl)-1H-1,2,4-triazole-3,5-diamine] | < 1000 nM | – | –
Cc1csc2c(-n3nc(Nc4ccc(N5CCN(C6CC7CCC6C7)CC5)c(F)c4)nc3N)ncnc12 (stereo not drawn) [Compound 194] | < 1000 nM | – | –
Nc1nc(Nc2ccc(N3CCN(C4CC5CCC4C5)CC3)c(F)c2)nn1-c1ncnc2ccsc12 (stereo not drawn) [Compound 195, 1-(thieno[3,2-d]pyrimdin-4-yl)-N^3-(3-fluoro-4-(4-(bicyclo[2.2.1]heptan-2-yl)-piperazin-1-yl)phenyl)-1H-1,2,4-triazole-3,5-diamine] | < 1000 nM | – | –
Nc1nc(Nc2ccc(N3CCN(C4CC5CCC4C5)CC3)c(F)c2)nn1-c1ncnc2sccc12 (stereo not drawn) [Compound 196, 1-(thieno[2,3-d]pyrimidin-4-yl)-N^3-(3-fluoro-4-(4-(bicyclo[2.2.1]heptan-2-yl)-piperazin-1-yl)phenyl)-1H-1,2,4-triazole-3,5-diamine] | < 1000 nM | – | –
Nc1nc(Nc2ccc(N3CCN(C4CC5CCC4C5)CC3)c(F)c2)nn1-c1ncnc2ccc(F)cc12 (stereo not drawn) [Compound 197, 1-(6-fluoroquinazolin-4-yl)-N^3-(3-fluoro-4-(4-(bicyclo[2.2.1]heptan-2-yl)-piperazin-1-yl)phenyl)-1H-1,2,4-triazole-3,5-diamine] | < 1000 nM | – | –
Cc1nnc(-n2nc(Nc3ccc(N4CCN(C5CC6CCC5C6)CC4)cc3)nc2N)c2sccc12 (stereo not drawn) [Compound 198, 1-(4-methylthieno[3,2-d]pyridazin-7-yl)-N^3-(4-(4-(bicyclo[2.2.1]heptan-2-yl)-piperazin-1-yl)phenyl)-1H-1,2,4-triazole-3,5-diamine] | < 1000 nM | – | –
Cc1cc(Nc2nc(N)n(-c3ncnc4c(C)csc34)n2)ccc1N1CCN(C2CC3CCC2C3)CC1 (stereo not drawn) [Compound 199, 1-(7-methylthieno[3,2-d]pyrimidin-4-yl)-N^3-(3-methyl-4-(4-(bicyclo[2.2.1]heptan-2-yl)-piperazin-1-yl)phenyl)-1H-1,2,4-triazole-3,5-diamine] | < 1000 nM | – | –
Cc1cc(N2CCN(C3CC4CCC3C4)CC2)ccc1Nc1nc(N)n(-c2nc(Cl)nc3c(C)csc23)n1 (stereo not drawn) [Compound 200, 1-(7-methyl-2-chlorothieno[3,2-d]pyrimidin-4-yl)-N^3-(2-methyl-4-(4-(bicyclo[2.2.1]heptan-2-yl)-piperazin-1-yl)phenyl)-1H-1,2,4-triazole-3,5-diamine] | 1000 to 10000 nM | – | –
Cc1csc2c(-n3nc(Nc4ccc(N5CCN([C@H]6C[C@@H]7CC[C@H]6C7)CC5)c(F)c4)nc3N)ncnc12 [Compound 201, 1-(7-methylthieno[3,2-d]pyrimidin-4-yl)-N^3-(3-fluoro-4-(4-((1S,2S,4R)-bicyclo[2.2.1]heptan-2-yl)-piperazin-1-yl)phenyl)-1H-1,2,4-triazole-3,5-diamine] | < 1000 nM | – | –
Cc1cc(N2CCN(C3CC4CCC3C4)CC2)ccc1Nc1nc(N)n(-c2ncnc3c(C)csc23)n1 (stereo not drawn) [Compound 202, 1-(7-methylthieno[3,2-d]pyrimidin-4-yl)-N^3-(2-methyl-4-(4-(bicyclo[2.2.1]heptan-2-yl)-piperazin-1-yl)phenyl)-1H-1,2,4-triazole-3,5-diamine] | < 1000 nM | – | –
Cc1nnc(-n2nc(Nc3ccc(N4CCN(C5CC6CCC5C6)CC4)c(F)c3)nc2N)c2sccc12 (stereo not drawn) [Compound 203, 1-(4-methylthieno[3,2-d]pyridazin-7-yl)-N^3-(3-fluoro-4-(4-(bicyclo[2.2.1]heptan-2-yl)-piperazin-1-yl)phenyl)-1H-1,2,4-triazole-3,5-diamine] | < 1000 nM | – | –
Nc1nc(Nc2ccc(N3CCN(C4CCCC4)CC3)c(F)c2)n(-c2nc3ccccc3c3ccccc23)n1 [Compound 205, 1-(phenanthridin-6-yl)-N^5-(3-fluoro-4-(4-cyclopentylpiperazin-1-yl)phenyl)-1H-1,2,4-triazole-3,5-diamine] | – | – | IC50 (Hela cells, phospho-Akt readout, Table 4, formula (Ib2)): < 1000 nM
COc1cc2ncnc(-n3nc(Nc4ccc(C(=O)N5CCN(C6CCCC6)CC5)cc4)nc3N)c2cc1OC [Compound 206, 1-(6,7-dimethoxyquinazolin-4-yl)-N^3-(4-(4-(cyclopentyl)piperazin-1-ylcarbonyl)phenyl)-1H-1,2,4-triazole-3,5-diamine] | – | < 1000 nM | –
Cc1csc2c(-n3nc(Nc4ccc(C(=O)N5CCN(C6CCCC6)CC5)cc4)nc3N)ncnc12 [Compound 207, 1-(7-methylthieno[3,2-d]pyrimidin-4-yl)-N^3-(4-(4-(cyclopentyl)piperazin-1-ylcarbonyl)phenyl)-1H-1,2,4-triazole-3,5-diamine] | – | < 1000 nM | –
Cc1csc2c(-n3nc(Nc4ccc(C(=O)NCCN5CCCC5)cc4)nc3N)nc(Cl)nc12 [Compound 208, 1-(7-methyl-2-chlorothieno[3,2-d]pyrimidin-4-yl)-N^3-(4-((2-(pyrrolidin-1-yl)ethyl)aminocarbonyl)phenyl)-1H-1,2,4-triazole-3,5-diamine] | – | < 1000 nM | –
COc1cc2ncnc(-n3nc(Nc4ccc(N5CCC(N6CCCCC6)CC5)c(F)c4)nc3N)c2cc1OC [Compound 209, 1-(6,7-dimethoxyquinazolin-4-yl)-N^3-(3-fluoro-4-(4-piperidin-1-ylpiperidin-1-yl)phenyl)-1H-1,2,4-triazole-3,5-diamine] | – | < 1000 nM | –
Cc1csc2c(-n3nc(Nc4ccc(N5CCC(N6CCCCC6)CC5)c(F)c4)nc3N)nc(Cl)nc12 [Compound 210, 1-(7-methyl-2-chlorothieno[3,2-d]pyrimidin-4-yl)-N^3-(3-fluoro-4-(4-piperidin-1-ylpiperidin-1-yl)phenyl)-1H-1,2,4-triazole-3,5-diamine] | – | < 1000 nM | –
CCN(CC)C1CCN(c2ccc(Nc3nc(N)n(-c4nc(Cl)nc5c(C)csc45)n3)cc2F)C1 (stereo not drawn) [Compound 211, 1-(7-methyl-2-chlorothieno[3,2-d]pyrimidin-4-yl)-N^3-(3-fluoro-4-(3-diethylaminopyrrolidin-1-yl)phenyl)-1H-1,2,4-triazole-3,5-diamine] | – | < 1000 nM | –
CN1CCC(c2ccc(Nc3nc(N)n(-c4nc5ccccc5c5ccccc45)n3)cc2)CC1 [Compound 213, 1-(phenanthridin-6-yl)-N^3-(4-(1-methylpiperidin-4-yl)phenyl)-1H-1,2,4-triazole-3,5-diamine] | – | < 1000 nM | –
Cc1cc(Nc2nc(N)n(-c3nc4ccccc4c4ccccc34)n2)ccc1N1CCC(N2CCCC2)CC1 [Compound 214, 1-(phenanthridin-6-yl)-N^3-(3-methyl-4-(4-pyrrolidin-1-ylpiperidin-1-yl)phenyl)-1H-1,2,4-triazole-3,5-diamine] | – | < 1000 nM | –
COc1cc2ncnc(-n3nc(Nc4ccc(N5Cc6ccccc6C5)c(F)c4)nc3N)c2cc1OC [Compound 216, 1-(6,7-dimethoxyquinazolin-4-yl)-N^3-(3-fluoro-4-(isoindolin-2-yl)phenyl)-1H-1,2,4-triazole-3,5-diamine] | – | > 20000 nM | –
Cc1cc(Nc2nc(N)n(-c3nnc(C)c4ccsc34)n2)ccc1N1CCN(C2CC3CCC2C3)CC1 (stereo not drawn) [Compound 217, 1-(4-methylthieno[3,2-d]pyridazin-7-yl)-N^3-(3-methyl-4-(4-(bicyclo[2.2.1]heptan-2-yl)-piperazin-1-yl)phenyl)-1H-1,2,4-triazole-3,5-diamine] | < 1000 nM | – | –
CC(C)c1ccc(-n2nc(Nc3ccc(N4CCOCC4)cc3)nc2N)cc1 [Compound 218, 1-(4-isopropylphenyl)-N^3-(4-morpholinophenyl)-1H-1,2,4-triazole-3,5-diamine] | – | > 20000 nM | –
Cc1csc2c(-n3nc(Nc4ccc5c(c4)CCC(N4CCCC4)CC5)nc3N)nc(Cl)nc12 (stereo not drawn) [Compound 219, 1-(7-methyl-2-chlorothieno[3,2-d]pyrimidin-4-yl)-N^3-(7-pyrrolidin-1-yl-6,7,8,9-tetrahydro-5H-benzo[7]annulene-2-yl)-1H-1,2,4-triazole-3,5-diamine] | – | – | IC50 [3]: < 1000 nM
COc1cc2ncnc(-n3nc(Nc4ccc5c(c4)CCC(N4CCCC4)CC5)nc3N)c2cc1OC (stereo not drawn) [Compound 220, 1-(6,7-dimethoxy-quinazolin-4-yl)-N^3-(7-pyrrolidin-1-yl-6,7,8,9-tetrahydro-5H-benzo[7]annulene-2-yl)-1H-1,2,4-triazole-3,5-diamine] | – | – | IC50 [3]: < 1000 nM
Cc1csc2c(-n3nc(Nc4ccc5c(c4)CCC(N(C)C4CC6CCC4C6)CC5)nc3N)nc(Cl)nc12 (stereo not drawn) [Compound 221, 1-(7-methyl-2-chlorothieno[3,2-d]pyrimidin-4-yl)-N^3-(7-(N-methyl-N-bicyclo[2.2.1]heptan-2-yl)amino-6,7,8,9-tetrahydro-5H-benzo[7]annulene-2-yl)-1H-1,2,4-triazole-3,5-diamine] | – | – | IC50 [3]: < 1000 nM
